{"source": "patent US20080227128A1", "about": "“Resonance Energy Transfer System and Method” (Mount Sinai School of Medicine of New York University, priority 2004, published 2008)", "system": "PKA-Ala construct", "experiment": "BRET assay, PKA-Ala construct", "type": "cell-based, Human"}
{"smiles": "Nc1ncnc2c1ncn2[C@@H]1O[C@@H]2COP(O)(=S)O[C@H]2[C@H]1O", "note": "(single isomer, unassigned) [Sp-cAMPs, Adenosine-3′,5′-cyclic monophosphorothioate, Sp-isomer]", "values": [{"measurement": "effect on BRET ratio, serine mutated to alanine", "value": "has no effect"}]}
